Structures are written as SMILES.

The data set can be described thus: in vitro. To be noted: human, hela cells, % viability.

The viability is a read-out of living cells in per cent, often relative to untreated cells. Regarding `Cc1ccc(-c2cncc(N3CCCC3CO)n2)cc1C` (stereo not shown) [CBK065945], the viability at 28.5 h, 10 µM stood at 89.1%.

With `CN1CCCN(c2cncc(-c3cccc(OC(F)(F)F)c3)n2)CC1` [CBK065949], the viability at 28.5 h, 10 µM amounted to 102%.

On to `C[C@H](Nc1cncc(-c2ccc3c(c2)OCO3)n1)c1ccccc1` [CBK065962], for which the viability at 28.5 h, 10 µM stood at 90.3%.

For `Cc1ccc(-c2cncc(NCc3cccs3)n2)cc1C` [CBK065967], the viability at 28.5 h, 10 µM worked out at 106%.

For `CCC(CO)Nc1cncc(-c2ccc3c(c2)OCO3)n1` (stereo not shown) [CBK065970], the viability at 28.5 h, 10 µM is 98.4%.

Regarding `CCOc1cccc(-c2cncc(N3CCN(c4ccccn4)CC3)n2)c1` [CBK065985], the viability at 28.5 h, 10 µM is 91.5%.

Turning to `Cc1ccc(-c2cncc(N(C)CCN(C)C)n2)cc1C` [CBK065990], the viability at 28.5 h, 10 µM amounted to 112%.

For the molecule `CCOc1cccc(-c2cncc(N3CCCC3CO)n2)c1` (stereo not shown) [CBK066004], the viability at 28.5 h, 10 µM is 89.7%.

For the molecule `C[C@H](Nc1cncc(-c2cccc(C(=O)NCCO)c2)n1)c1ccccc1` [CBK066007], the viability at 28.5 h, 10 µM is 108%.

For the molecule `COc1ncc(-c2cncc(Nc3cccc(C#N)c3)n2)c(OC)n1` [CBK066022], the viability at 28.5 h, 10 µM was determined as 89.7%.

Turning to `N#Cc1cccc(Nc2cncc(-c3cccs3)n2)c1` [CBK066030], the viability at 28.5 h, 10 µM was 95.4%.

Regarding `CCOc1cccc(-c2cncc(NCc3cccs3)n2)c1` [CBK066034], the viability at 28.5 h, 10 µM was determined as 104%.

For `CC(C)[C@@H](CO)Nc1cncc(-c2ccc(O)cc2)n1` [CBK066038], the viability at 28.5 h, 10 µM amounted to 97.8%.

In the case of `c1ccc2oc(-c3cncc(NCCCN4CCOCC4)n3)cc2c1` [CBK066045], the viability at 28.5 h, 10 µM was found to be 92.9%.

Take `CC(=O)Nc1ccc(-c2cncc(N3CCN(C(=O)c4ccco4)CC3)n2)cc1` [CBK066065]: the viability at 28.5 h, 10 µM came to 99.3%.

`COc1ccc(N2CCN(c3cncc(-c4cccnc4)n3)CC2)cc1OC` [CBK066086]: the viability at 28.5 h, 10 µM came to 90.5%.

Turning to `COc1ccc(-c2cncc(N3CCN(c4cccc5[nH]ccc45)CC3)n2)cc1` [CBK066087], the viability at 28.5 h, 10 µM came to 97.2%.

For `CCCC/C=C/c1cncc(N2CCN(Cc3ccccn3)CC2)n1` [CBK066096], the viability at 28.5 h, 10 µM stood at 93.4%.

Turning to `CCN(CC)CCN1CCN(c2cncc(-c3cccc(/C=C/C(=O)O)c3)n2)CC1` [CBK066097], the viability at 28.5 h, 10 µM stood at 96.6%.

As for `Clc1cccc(-c2cncc(N3CCN(c4ccncc4)CC3)n2)c1` [CBK066099], the viability at 28.5 h, 10 µM worked out at 95.4%.

For `c1ccc(N2CCN(c3cncc(-c4ccc5ccccc5c4)n3)CC2)nc1` [CBK066104], the viability at 28.5 h, 10 µM turned out to be 100%.

For the molecule `COc1ccc(N2CCN(c3cncc(-c4cccc(N)c4)n3)CC2)cc1OC` [CBK066126], the viability at 28.5 h, 10 µM turned out to be 94.3%.

As for `COCCNc1nc(-c2ccc3ccccc3c2)cn2ccnc12` [CBK066138], the viability at 28.5 h, 10 µM is 103%.

Consider `FC(F)(F)c1cc(-c2cn3ccnc3c(NCCc3cccnc3)n2)cc(C(F)(F)F)c1` [CBK066146], for which the viability at 28.5 h, 10 µM came to 98.1%.

On to `CC(C)[C@H](CO)Nc1nc(-c2ccc(N3CCOCC3)cc2)cn2ccnc12` [CBK066151], for which the viability at 28.5 h, 10 µM came out at 108%.

Take `COc1cccc(OC)c1-c1cn2ccnc2c(NCCc2ccccn2)n1` [CBK066173]: the viability at 28.5 h, 10 µM was 109%.

With `COc1cc(-c2cn3ccnc3c(NC3CC3)n2)cc(OC)c1OC` [CBK066184], the viability at 28.5 h, 10 µM was determined as 90%.

Regarding `CCCC/C=C/c1cn2ccnc2c(Nc2cccc(OCC(=O)N(C)C)c2)n1` [CBK066185], the viability at 28.5 h, 10 µM stood at 108%.

Regarding `COc1cc(-c2cn3ccnc3c(N(C)CCN(C)C)n2)cc(OC)c1OC` [CBK066196], the viability at 28.5 h, 10 µM was found to be 100%.

As to `CCCC/C=C/c1cn2ccnc2c(N2CCN(c3ccccn3)CC2)n1` [CBK066224], the viability at 28.5 h, 10 µM was 94%.

As to `COc1ccc(-c2cn3ccnc3c(N3CCCCC3CO)n2)cc1OC` (stereo not shown) [CBK066230], the viability at 28.5 h, 10 µM worked out at 107%.

As for `CCCC/C=C/c1cn2ccnc2c(NCCc2cccnc2)n1` [CBK066235], the viability at 28.5 h, 10 µM is 105%.

With `CCN(CCO)c1ccc(Nc2nc(-c3cccc4ccccc34)cn3ccnc23)cc1` [CBK066243], the viability at 28.5 h, 10 µM is 87.9%.

As for `Clc1cccc(Nc2nc(Br)cn3ccnc23)c1` [CBK066260], the viability at 28.5 h, 10 µM was 80.6%.

For the molecule `COc1ccc(-c2cn3ccnc3c(Nc3ccc(N4CCOCC4)cc3)n2)cc1` [CBK066265], the viability at 28.5 h, 10 µM was determined as 98.5%.

With `O=C(O)/C=C/c1cccc(-c2cn3ccnc3c(NCc3cccnc3)n2)c1` [CBK066283], the viability at 28.5 h, 10 µM is 98.8%.

Take `Brc1cccc(-c2cn3ccnc3c(NC3CCOCC3)n2)c1` [CBK066291]: the viability at 28.5 h, 10 µM turned out to be 101%.

For the molecule `O=C(O)/C=C/c1cccc(-c2cn3ccnc3c(N3CCN(c4ccncc4)CC3)n2)c1` [CBK066326], the viability at 28.5 h, 10 µM came out at 94.8%.

Turning to `CCCC/C=C/c1cn2ccnc2c(NCc2cc(OC)c(OC)c(OC)c2)n1` [CBK066331], the viability at 28.5 h, 10 µM is 93.1%.

As for `CN1CCN(c2nc(-c3ccccc3CO)cn3ccnc23)CC1` [CBK066347], the viability at 28.5 h, 10 µM was 87.1%.

For the molecule `COc1ccc(Nc2nc(-c3cc(C(C)C)ccc3OC)cn3ccnc23)cn1` [CBK066354], the viability at 28.5 h, 10 µM stood at 84.3%.

On to `FC(F)(F)c1cc(-c2cn3ccnc3c(Nc3ccc4[nH]ccc4c3)n2)cc(C(F)(F)F)c1` [CBK066356], for which the viability at 28.5 h, 10 µM amounted to 91.7%.

As for `CN(C)CCNC(=O)c1cccc(-c2cn3ccnc3c(NCc3ccccc3)n2)c1` [CBK066365], the viability at 28.5 h, 10 µM stood at 102%.

On to `COc1ccc(C(C)C)cc1-c1cn2ccnc2c(N(C)CCN(C)C)n1` [CBK066368], for which the viability at 28.5 h, 10 µM came out at 94.8%.

As to `OCCNc1nc(-c2ccccc2)cn2ccnc12` [CBK066379], the viability at 28.5 h, 10 µM was found to be 97.6%.

As for `CN(C)CCN(C)c1nc(-c2ccc3c(c2)OCO3)cn2ccnc12` [CBK066381], the viability at 28.5 h, 10 µM was determined as 110%.

Consider `CN1CCN(c2nc(-c3cc4ccccc4s3)cn3ccnc23)CC1` [CBK066388], for which the viability at 28.5 h, 10 µM is 106%.

With `FC(F)(F)c1cc(-c2cn3ccnc3c(N3CCOCC3)n2)cc(C(F)(F)F)c1` [CBK066396], the viability at 28.5 h, 10 µM stood at 93.4%.

`COc1cccc(OC)c1-c1cn2ccnc2c(N(C)CCN(C)C)n1` [CBK066398]: the viability at 28.5 h, 10 µM was 97.3%.

Consider `COCCNc1nc(-c2cccs2)cn2ccnc12` [CBK066408], for which the viability at 28.5 h, 10 µM came out at 99.3%.

On to `COCCNc1nc(-c2cccc(F)c2)cn2ccnc12` [CBK066465], for which the viability at 28.5 h, 10 µM was found to be 98.4%.

Consider `CCNc1nc(-c2ccc(Oc3ccccc3)cc2)cn2ccnc12` [CBK066467], for which the viability at 28.5 h, 10 µM came out at 94.6%.

For the molecule `CN(C)CCN(C)c1nc(-c2ccc(Oc3ccccc3)cc2)cn2ccnc12` [CBK066469], the viability at 28.5 h, 10 µM was 99.8%.

For the molecule `FC(F)(F)c1cccc(-c2cn3ccnc3c(NCCc3ccccn3)n2)c1` [CBK066491], the viability at 28.5 h, 10 µM is 95.4%.

For `CCOc1cccc(-c2cn3ccnc3c(Nc3ccc(Cl)cc3)n2)c1` [CBK066505], the viability at 28.5 h, 10 µM stood at 92.1%.

Regarding `c1ccc(Nc2nc(-c3cccs3)cn3ccnc23)cc1` [CBK066513], the viability at 28.5 h, 10 µM was 83.7%.

On to `CN1CCCN(c2nc(-c3cccc(C(F)(F)F)c3)cn3ccnc23)CC1` [CBK066519], for which the viability at 28.5 h, 10 µM is 92%.

In the case of `c1ccc(N2CCN(c3nc(-c4ccoc4)cn4ccnc34)CC2)nc1` [CBK066522], the viability at 28.5 h, 10 µM came out at 99.7%.

Values taken from publication PMC12040169 (PLOS Biology, 2025).
